{"source": "paper PMC7958298", "about": "(Journal of the American Chemical Society, 2020)", "key": {"pre-miRNA-21 stem": {"system": "pre-miRNA-21 stem", "experiment": "BLI binding to pre-miRNA-21 stem missing the hairpin loop", "conditions": "relative to pre-miRNA-21 hairpin, SI Figure 1"}, "pre-miRNA-21": {"system": "pre-miRNA-21", "experiment": "Circular dichroism melting of pre-miRNA-21", "assay_type": "physicochemical", "conditions": "pre-miRNA-21 alone vs with 39, SI Figure 3"}, "[1]": {"system": "hairpin derived from HIV RNA", "experiment": "BLI binding to unrelated hairpin derived from HIV RNA", "conditions": "SI Figure 1"}}, "data": [{"substance": "Lys-DabG-hAlaA-Arg-Asp-DabA-Leu-hAlaG-Ala-Lys [Compound 39]", "values": [{"measurement": "reduction of affinity towards the pre-miRNA-21 stem, missing the hairpin loop", "setting": "pre-miRNA-21 stem", "result": "over 50 fold"}, {"measurement": "shift in melting temperature of pre-miRNA-21 in the presence of peptide", "setting": "pre-miRNA-21", "result": "no significant shift in melting temperature"}, {"measurement": "binding to unrelated hairpin derived from HIV RNA", "setting": "[1]", "result": "high affinity"}]}]}
